We go through 10 molecules from ChEMBL document CHEMBL4613208, “Isatin derivatives and their anti-bacterial activities” (Eur J Med Chem, 2019).

Data set [1] relates to Bacillus pumilus. Briefly: Antibacterial activity against Bacillus pumilus. The format is functional.
Data set [2] relates to Priestia megaterium. Description: Antibacterial activity against Bacillus megaterium. The format is functional.
For data set [3], the system named is Staphylococcus epidermidis. Description: Antibacterial activity against Staphylococcus epidermidis. The class given is functional.
Data set [4] deals with Staphylococcus aureus. Description: Antibacterial activity against Staphylococcus aureus. The class given is functional, organism-based.
In data set [5] the test system is Pseudomonas aeruginosa. Briefly: Antibacterial activity against Pseudomonas aeruginosa. The class given is functional, organism-based.
The subject of data set [6] is Bacillus subtilis. Briefly: Antibacterial activity against Bacillus subtilis. The class given is functional.
Data set [7] concerns Escherichia coli. Description: Antibacterial activity against Escherichia coli. The format is functional, organism-based.
In data set [8] the test system is Shigella flexneri. Briefly: Antibacterial activity against Shigella flexneri. The format is functional.
Data set [9] concerns Citrobacter freundii. Briefly: Antibacterial activity against Citrobacter freundii. The class given is functional.
Data set [10] concerns Salmonella typhi. Briefly: Antibacterial activity against Salmonella typhi. The format is functional, Salmonella enterica subsp. enterica serovar Typhi. The settings on record: Salmonella enterica.
In data set [11] the test system is Klebsiella pneumoniae. Briefly: Antibacterial activity against Klebsiella pneumoniae. The format is functional.
Data set [12] concerns Vibrio cholerae. Description: Antibacterial activity against Vibrio cholerae. The class given is functional.
Data set [13] relates to Klebsiella pneumoniae. Briefly: Antibacterial activity against Klebsiella pneumoniae after 24 hrs by paper disc diffusion technique. The format is functional. To be noted: Klebsiella pneumoniae, 24 h; read-out: MIC. Background: Agar diffusion results depend on both activity and mobility in agar.
Data set [14] deals with Micrococcus luteus. Briefly: Antibacterial activity against Micrococcus luteus after 24 hrs by paper disc diffusion technique. To be noted: Micrococcus luteus, 24 h. The format is functional.
Data set [15] concerns Staphylococcus aureus. Briefly: Antibacterial activity against Staphylococcus aureus after 24 hrs by paper disc diffusion technique. The class given is functional. The settings on record: Staphylococcus aureus, 24 h; read-out: MIC.
For data set [16], the system named is Pseudomonas aeruginosa. Briefly: Antibacterial activity against Pseudomonas aeruginosa after 24 hrs by paper disc diffusion technique. The class given is functional. The settings on record: Pseudomonas aeruginosa, 24 h; read-out: MIC.
Data set [17] relates to Staphylococcus epidermidis. Briefly: Antibacterial activity against Staphylococcus epidermidis after 24 hrs by paper disc diffusion technique. The format is functional. To be noted: Staphylococcus epidermidis, 24 h.
In data set [18] the test system is Escherichia coli. Description: Antibacterial activity against Escherichia coli after 24 hrs by paper disc diffusion technique. The format is functional. The settings on record: Escherichia coli, 24 h; read-out: MIC.
Data set [19] relates to Bacillus subtilis. Description: Antibacterial activity against Bacillus subtilis assessed as zone of inhibition at 20 mg/ml. The format is functional. To be noted: read-out: IZ.
The subject of data set [20] is Pseudomonas aeruginosa. Briefly: Antibacterial activity against Pseudomonas aeruginosa assessed as zone of inhibition at 20 mg/ml. The format is functional. To be noted: read-out: IZ.
Data set [21] has as its system Staphylococcus aureus. Description: Antibacterial activity against Staphylococcus aureus assessed as zone of inhibition at 20 mg/ml. The format is functional. To be noted: read-out: IZ.
The test system of data set [22] is Escherichia coli. Description: Antibacterial activity against Escherichia coli assessed as zone of inhibition at 20 mg/ml. To be noted: read-out: IZ. The format is functional.
The test system of data set [23] is Escherichia coli. Description: Antibacterial activity against Escherichia coli NCTC 10418. The class given is functional.
The test system of data set [24] is Escherichia coli. Description: In vivo antibacterial activity against Escherichia coli infected in po dosed mouse. The class given is functional.
Data set [25] in a line: Toxicity in po dosed mouse. The class given is organism-based. The settings on record: in vivo.
Data set [26] concerns Escherichia coli. Briefly: Potency index, ratio of ED50 for norfloxacin to ED50 for test compound for in vivo antibacterial activity against Escherichia coli infected in po dosed mouse. The format is functional.
Data set [27] has as its system Streptococcus pyogenes. Description: Antibacterial activity against Streptococcus pyogenes. The format is functional.
Data set [28] concerns Proteus vulgaris. Description: Antibacterial activity against Proteus vulgaris. The class given is functional.

Molecules are shown by their SMILES. Values after ≈ are worked out from the molar mass of the structure shown. A value given as a limit tells only on which side of the number the result lay.

On to `N[C@@H](C(=O)N[C@@H]1C(=O)N2C(C(=O)O)=C(Cl)CS[C@H]12)c1ccccc1` [CEFACLOR ANHYDROUS], for which the MIC in data set [1], in [2], in data set [3], in data set [4] and in data set [5] was 2 to 8 µg/mL (≈ 5.44 to 21.8 µM) in each case.

For the molecule `[N-]=[N+]=Nc1ccc(C2=NN(C(=O)CN3C(=O)C(=O)c4ccccc43)C(c3ccc(F)cc3)C2)cc1` (stereo not drawn), the MIC in data set [6], in data set [4], in data set [7] and in [5] was 6.25 to 50 µg/mL (≈ 13.3 to 107 µM) throughout.

Turning to `CCn1cc(C(=O)O)c(=O)c2cc(F)c(N3CCNC(C)C3)c(F)c21` (stereo not drawn) [LOMEFLOXACIN], the MIC in [8] lay in the range of 0.25 to 2.5 µg/mL (≈ 0.712 to 7.12 µM); in data set [9], 0.25 to 2.5 µg/mL (≈ 0.712 to 7.12 µM); in [10], 0.25 to 2.5 µg/mL; in data set [3] it was 0.25 to 2.5 µg/mL (≈ 0.712 to 7.12 µM); in [11], 0.25 to 2.5 µg/mL (≈ 0.712 to 7.12 µM); in data set [4] it was 0.25 to 2.5 µg/mL (≈ 0.712 to 7.12 µM). Besides, the MIC in data set [7], in data set [12] and in [5] was 0.25 to 2.5 µg/mL (≈ 0.712 to 7.12 µM) in each case.

Regarding `O=C(O)c1cn(C2CC2)c2cc(N3CCNCC3)c(F)cc2c1=O` [CIPROFLOXACIN], the MIC in data set [6] is < 5 µg/mL; in data set [10] it was 2 nM; in [13], 3.9 to 15.6 µg/mL (≈ 11.8 to 47.1 µM); in [14] it was 3.9 to 15.6 µg/mL (≈ 11.8 to 47.1 µM); in data set [4] it was < 5 µg/mL; in data set [7], < 5 µg/mL. In addition, the MIC in data set [15] is 3.9 to 15.6 µg/mL (≈ 11.8 to 47.1 µM); in data set [16], 3.9 to 15.6 µg/mL (≈ 11.8 to 47.1 µM); in [17], 3.9 to 15.6 µg/mL (≈ 11.8 to 47.1 µM); in data set [18], 3.9 to 15.6 µg/mL (≈ 11.8 to 47.1 µM); in [5], < 5 µg/mL.

Regarding `CC(C)(C)Nc1oc(N(C(=O)CN2C(=O)C(=O)c3ccccc32)C(C)(C)C)c(C(=O)OC(C)(C)C)c1C(=O)OC(C)(C)C`, the zone of inhibition at 20000 µg/mL in data set [19], in [20], in data set [21] and in [22] was 15.6 to 26 mm each time.

For `CC(=O)NC[C@H]1CN(c2ccc(N3CCOCC3)c(F)c2)C(=O)O1` [LINEZOLID], the MIC in data set [1], in [2], in data set [3], in data set [4] and in data set [5] was 4 to 8 µg/mL (≈ 11.9 to 23.7 µM) each time.

Take `CCn1cc(C(=O)O)c(=O)c2cc(F)c(N3CCN(CN4C(=O)/C(=N\c5ccc(S(=O)(=O)Nc6ncnc(OC)c6OC)cc5)c5ccccc54)CC3)cc21`: the MIC in [23] was < 1 µg/mL. The molecule also gave a 50% effective dose (ED50) in data set [24] of 1.25 mg/kg. Further, the LD50 in data set [25] was > 4000 mg/kg. The “Ratio ED50” value in data set [26] is on record as >3.7.

Consider `O=C1Nc2ccc(S(=O)(=O)N3CCOCC3)cc2C1=O`, for which the MIC in [6], in data set [8], in [27], in data set [11], in data set [4] and in data set [28] was 0.007 to 0.49 µg/mL (≈ 0.0236 to 1.65 µM) in each case.

As for `CC1S/C(=N/N=C2\C(=O)Nc3ccc(S(=O)(=O)N4CCOCC4)cc32)N(c2ccccc2)C1=O` (stereo not drawn), the MIC in [6], in [8], in data set [27], in [11], in [4] and in data set [28] was 0.03 to 3.9 µg/mL (≈ 0.0601 to 7.81 µM) each time.

For the molecule `CCOC(=O)CN1C(=O)/C(=C2\SC(=S)N(CC(=O)N(c3oc(NC(C)(C)C)c(C(=O)OCC)c3C(=O)OCC)C(C)(C)C)C2=O)c2ccccc21`, the zone of inhibition at 20000 µg/mL in data set [19], in data set [20], in data set [21] and in data set [22] was 15.6 to 26 mm in each case.

The MIC is the least concentration at which growth counts as inhibited. What is called ED50 is the dose at which the effect has come halfway, by size or by number of responders. Low readings indicate an effect at a small dose, high ones a need for a large dose. In general, LD50 refers to the dose expected to kill half of the subjects tested.
